Target: Procathepsin L (Homo sapiens, UniProt P07711)
Assay: not given

Sequence of Procathepsin L (P07711 whole entry): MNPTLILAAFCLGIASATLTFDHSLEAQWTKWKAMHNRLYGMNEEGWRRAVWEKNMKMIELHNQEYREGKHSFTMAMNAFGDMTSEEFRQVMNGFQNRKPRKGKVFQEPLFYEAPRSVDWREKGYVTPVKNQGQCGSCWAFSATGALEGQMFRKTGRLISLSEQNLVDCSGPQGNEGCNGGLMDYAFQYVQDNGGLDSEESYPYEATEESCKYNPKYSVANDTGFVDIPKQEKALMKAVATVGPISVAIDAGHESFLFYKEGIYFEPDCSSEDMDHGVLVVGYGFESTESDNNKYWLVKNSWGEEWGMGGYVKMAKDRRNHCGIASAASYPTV

Structure (SMILES) | Ki [nM]
N#Cc1nc(N2CCOCC2)nc(N(Cc2cccc(F)c2)C2CCCC2)n1 | 200
N#Cc1nc(N2CCOCC2)nc(N(Cc2cc(F)ccc2F)C2CCCC2)n1 | 251
N#Cc1nc(N2CCOCC2)nc(N(Cc2ccc(F)cc2F)C2CCCC2)n1 | 126
N#Cc1nc(N2CCOCC2)nc(N(Cc2ccc(F)cc2)C2CCCC2)n1 | 501

Target: T1, 5-hydroxytryptamine receptor 1A (Homo sapiens, UniProt P08908)
T1 sequence (P08908 whole entry): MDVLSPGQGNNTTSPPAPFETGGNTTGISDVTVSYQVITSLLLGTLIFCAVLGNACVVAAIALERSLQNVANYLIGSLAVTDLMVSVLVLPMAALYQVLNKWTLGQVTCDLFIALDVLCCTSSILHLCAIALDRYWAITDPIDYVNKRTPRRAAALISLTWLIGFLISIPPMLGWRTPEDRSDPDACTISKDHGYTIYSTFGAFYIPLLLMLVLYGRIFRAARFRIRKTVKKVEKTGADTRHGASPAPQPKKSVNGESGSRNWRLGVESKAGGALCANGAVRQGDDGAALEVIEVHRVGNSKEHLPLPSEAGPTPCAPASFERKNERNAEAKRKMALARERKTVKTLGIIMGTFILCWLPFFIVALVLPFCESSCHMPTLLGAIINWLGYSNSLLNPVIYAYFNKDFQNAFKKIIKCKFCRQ
Assay: not given
Assay type: functional, cell-based, CHO

Structure (SMILES) | IC50 [nM]
N#Cc1ccc2[nH]cc(CCCCN3CCN(c4ccc5c(c4)OCCO5)CC3)c2c1 | 1
Fc1ccc2[nH]cc(CCCCN3CCN(c4ccc5c(c4)OCCO5)CC3)c2c1 | 5
Fc1ccc2[nH]cc(CCCCN3CCN(c4ccc5c(c4)OCO5)CC3)c2c1 | 4
Clc1ccc2[nH]cc(CCCCN3CCN(c4ccc5c(c4)OCCO5)CC3)c2c1 | 40
c1ccc2c(CCCCN3CCN(c4ccc5c(c4)OCCO5)CC3)c[nH]c2c1 | 8
NC(=O)c1cc2cc(N3CCN(CCCCc4c[nH]c5ccc(F)cc45)CC3)ccc2o1 | 3
N#Cc1ccc2[nH]cc(CCCCN3CCN(c4ccc5c(c4)OCO5)CC3)c2c1 | 0.7

Tested on: Plasmodium berghei
Assay: microbe, parasite or virus in culture
Assay type: functional, organism-based

Structure (SMILES) | IC50 [nM] | IC90 [nM]
C[C@@H]1CC[C@H]2[C@@H](C)C(=O)O[C@@H]3O[C@@]4(C)CC[C@@H]1[C@]32OO4 [ARTEMISININ] | 8.9 | 14.5
C[C@@H]1CC[C@H]2[C@@H](C)C(=C(F)F)O[C@@H]3O[C@@]4(C)CC[C@@H]1[C@]32OO4 | 20 | –
CC1=C(C(F)(F)F)O[C@@H]2O[C@@]3(C)CC[C@H]4[C@H](C)CC[C@@H]1[C@@]24OO3 | 4.6 | 7.3

Target: D(2) dopamine receptor (Homo sapiens) (UniProt P14416)
Sequence (P14416 whole entry): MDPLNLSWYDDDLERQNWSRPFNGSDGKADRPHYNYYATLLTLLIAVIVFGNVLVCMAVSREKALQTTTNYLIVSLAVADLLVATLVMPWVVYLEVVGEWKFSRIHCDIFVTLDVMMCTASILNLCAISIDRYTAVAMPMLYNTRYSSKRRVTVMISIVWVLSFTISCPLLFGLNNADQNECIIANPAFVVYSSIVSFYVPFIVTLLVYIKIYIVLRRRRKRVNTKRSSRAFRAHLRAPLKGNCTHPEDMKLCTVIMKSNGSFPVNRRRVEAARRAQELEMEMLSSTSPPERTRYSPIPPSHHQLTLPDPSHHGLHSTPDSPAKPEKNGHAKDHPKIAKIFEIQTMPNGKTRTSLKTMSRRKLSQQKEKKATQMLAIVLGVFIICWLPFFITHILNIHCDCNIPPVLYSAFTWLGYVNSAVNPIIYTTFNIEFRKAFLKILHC
Assay: not given

Structure (SMILES) | KiH [nM]
FC(F)(F)c1nc2c3c(ccc2[nH]1)CCC(CNCc1ccccc1)O3 (stereo not drawn) | 5.75
O=C1Cc2c(ccc3c2OC(CNCc2ccccc2)CC3)N1 (stereo not drawn) | 0.37
Oc1nc2c(OCCNCc3ccccc3)cccc2[nH]1 | 0.18
FC(F)(F)c1nc2c(OCCNCc3ccccc3)cccc2[nH]1 | 0.18
Cc1nc2c(OCCNCc3ccccc3)cccc2[nH]1 | 4.4
c1ccc(CNCCOc2cccc3[nH]cnc23)cc1 | 9.8
Oc1nc2c3c(ccc2[nH]1)CCC(CNCc1ccccc1)O3 (stereo not drawn) | 0.14
